Earlier results, collected in US7501136B2, “Deodorant composition” (Kao Corporation, priority 2003, dated 2009).

Test system: Staphylococcus aureus
Details: against Staphylococcus aureus

## Cc1cc(O)ccc1C(C)C [isopropyl methylphenol]
  MIC (Minimum Inhibitory Concentration): 0.015%
